# Experimental data published in patent US10968214B2, “KRas G12C inhibitors” (Eli Lilly and Company, priority 2018, dated 2021).
# Like-named read-outs stand apart in the source and are kept apart here.
# Key:
# SW837 = test: Combination 4 day growth assay (Cell TiterGlo), SW837; type: cell-based; settings: Homo sapiens, SW837, 96 h, single treatment, read-out: Absolute IC50
# Experimental: Cell lines for this study are obtained from ATCC and grown under ATCC recommended conditions, except for LXFA-983L, which is obtained from Oncotest/Charles Rivers Laboratories, Wilmington, Mass. and D122-96, which is obtained from L. Eisenbach (Weizman Institute of Science, Rehovot, Israel)—both grown under recommended conditions. […] The proliferation assay is performed as a 4 day growth assay using Cell TiterGlo® as the readout. Briefly, cells are plated in 96-well cell culture plates and allowed to adhere overnight at 37° C. The following day, cells are treated with compounds, either single treatments or combination treatments. First, the testing compounds are serially diluted in DMSO, followed by dilution into media as a 5× concentration with 1% DMSO, and finally added to cells in media to dilute to 1×. The cells are incubated at 37° C. for 4 more days. At the end of the incubation period, Cell TiterGlo® reagent is mixed and added to the wells. After 10 minutes, the luminescence is read by a Perkin Elmer Envision instrument. Absolute IC50 values generated by a 4-parameter logistics model for the single and combination treatments are generated, followed by combination indexes for each combination treatment and cell line. The combination IC50 values are adjusted based on the total concentration of each compound when added together. […] The combination index (CI) measures the degree to which the potency of a combination therapy differs from the expected-if-additive potency and is based on the Loewe definition of additivity.
# [formula] Where • CAy and CBy are the concentrations of therapies A and B that produce an effect, y, when given in combination • ICAy and ICBy are the concentrations of A and B that produce an effect, y, when given individually The biological interpretation of the combination index is as follows: synergistic if the combination index <0.5, additive if the combination index is between 0.5 and 2, and antagonistic if the combination index is >2.
# [1] = system: pMEK in H358 xenograft tumors; test: In vivo target inhibition/PD, H358 xenograft, pMEK; set-up: species or system mouse; settings: for inhibition at 30 mg/kg: 30 mg/kg single dose
# Experimental: To evaluate in vivo target inhibition and anti-tumor efficacy of a compound, Human lung cancer cells, H358 or H2122 are implanted into nude mice xenograft tumor models. Either H358 or H2122 cells (10×10^6 in a 1:1 Matrigel® mix, 0.2 mL total volume) are implanted by subcutaneous injection in hind leg of nude female mice (Harlan Laboratories). A total of 5 mice each group are used for efficacy study, and a total of 3-4 mice each group are used for target engagement and PD study. Treatment is initiated with oral administration (gavage) of a test compound or vehicle (20% Captisol®, 25 mM phosphate, pH 2.0 in 0.2 mL volume when the tumor size reaches approximately […]. Tumor growth and body weight are monitored over time to evaluate efficacy and signs of toxicity. Bidimensional measurements of tumors are performed twice a week and tumor volumes are calculated based on mid-axis length and mid-axis width. Tumor volume data are transformed to a log scale to equalize variance across time and treatment groups. The log volume data are analyzed with a two-way repeated measures analysis of variance by time and treatment using the mixed procedures in SAS software (version 8.2). The correlation model for the repeated measures is spatial power. Treated groups are compared to the control group at each time point. The mixed procedure is also used separately for each treatment group to calculate adjusted means and standard errors at each time point. Both analyses account for the autocorrelation within each animal. The adjusted means and standard errors are plotted for each treatment group versus time.
# For in vivo target inhibition and PD analysis, tumors are ground by mortar and pestle on dry ice and tumor fragments are added to 800 μL of lysis buffer containing 1% Triton X100, 25 mM Tris pH 7.5, 150 mM NaCl, 1 mM EDTA, and 1 mM EGTA with Halt protease and phosphatase inhibitor cocktail (Thermo Scientific, cat. no. 1861281) in lysing matrix D tubes (MP Biomedical®, cat. no. 6913-500) with one additional large bead (MP Biomedical® ¼″ ceramic sphere bead cat. no. 6540-412) per tube. Tumor fragments are homogenized in a Thermo Bio101® fast prep (FP120) at setting 4 for […] while cold for a total of 2 times. Lysates are spun at 14,000 rpm for 10 min at 4° C. to clarify. Protein estimation is done on the lysate supernatant using a BioRad Dc® protein assay and lysates are diluted in complete lysis/binding buffer from the Ras GTPase Chemi ELISA Kit® (Active Motif, cat. no. 52097). The active KRas ELISA was performed as follows: Glutathione-coated ELISA wells were incubated with diluted RAF1-GST in complete lysis/binding buffer for 1 hr at 4° C. with gentle agitation. Wells are washed 3 times with wash buffer and 100 μg of lysates are added to each well and incubated at RT for 1 hr with mild agitation. The wells are washed an additional 3 times, then primary antibody, diluted in antibody binding buffer, is added to each well. The plates are incubated for 1 hr. The wells are washed 3 more times before adding HRP-conjugated secondary antibody, diluted in antibody binding buffer, to each well. The plates are incubated at RT for 1 hr. ELISA wells are washed 4 times, chemiluminescent reagents is added and then luminescence is read. For pERK Meso Scale Discovery ELISA, 25 μg of protein containing 0.1% SDS is used; for pMEK Meso Scale Discovery ELISA, 50 μg of protein without SDS is used. Meso Scale Discovery Whole Cell Lysate Kits for pERK and pMEK are provided by Meso Scale Discovery.
# The tumor samples are collected 4 hr post a single dose. The tumor lysates are prepared and the inhibition of pERK, pMEK, and active KRas is measured as described above.
# After a single dose, the tumor samples are harvested at 2, 4, 8, 12 and 24 hr post doing. The tumor lysates are prepared and the inhibition of pERK, pMEK, and active KRas is measured as described above.
structure (smiles),measurement,setting,value
"C=CC(=O)N1CCN(c2ncnc3c(F)c(-c4ccc(F)c5sc(N)nc45)c(Cl)cc23)CC1 [Example 1, 1-{4-[7-(2-Amino-7-fluoro-1,3-benzothiazol-4-yl)-6-chloro-8-fluoroquinazolin-4-yl]piperazin-1-yl}prop-2-en-1-one]",IC50,SW837,101 nM
same,% Inhibition pMEK,"[1]; H358 xenograft, time course, 10 mg/kg single dose, 24 hr, 10 mg/kg",30.4%
same,"dose to achieve 50% target inhibition (TED50), pMEK","[1]; H358 xenograft, single dose, 4 hr",11.19 mg/kg
same,inhibition at 10 mg/kg,"[1]; Mus musculus, NCI-H358, 2 h, H358 xenograft, time course, 10 mg/kg single dose, 2 hr, read-out: % Inhibition pMEK",49.2%
same,inhibition at 30 mg/kg,"[1]; Mus musculus, NCI-H358, 2 h, H358 xenograft, time course, 2 hr, read-out: % Inhibition pMEK",81.4%
same,inhibition at 10 mg/kg,"[1]; Mus musculus, NCI-H358, 4 h, H358 xenograft, time course, 10 mg/kg single dose, 4 hr, read-out: % Inhibition pMEK",59.5%
same,inhibition at 30 mg/kg,"[1]; Mus musculus, NCI-H358, 4 h, H358 xenograft, time course, 4 hr, read-out: % Inhibition pMEK",89.3%
same,inhibition at 1 mg/kg,"[1]; Mus musculus, NCI-H358, 4 h, H358 xenograft, 1 mg/kg single dose, 4 hr post dose",-6.2%
same,inhibition at 3 mg/kg,"[1]; Mus musculus, NCI-H358, 4 h, H358 xenograft, 3 mg/kg single dose, 4 hr post dose",11.1%
same,inhibition at 10 mg/kg,"[1]; Mus musculus, NCI-H358, 4 h, H358 xenograft, 10 mg/kg single dose, 4 hr post dose, read-out: % Inhibition pMEK",43.1%
same,inhibition at 30 mg/kg,"[1]; Mus musculus, NCI-H358, 4 h, H358 xenograft, 4 hr post dose, read-out: % Inhibition pMEK",82.1%
same,inhibition at 100 mg/kg,"[1]; Mus musculus, NCI-H358, 4 h, H358 xenograft, 100 mg/kg single dose, 4 hr post dose",85.8%
same,inhibition at 10 mg/kg,"[1]; Mus musculus, NCI-H358, 8 h, H358 xenograft, time course, 10 mg/kg single dose, 8 hr, read-out: % Inhibition pMEK",62.4%
same,inhibition at 30 mg/kg,"[1]; Mus musculus, NCI-H358, 8 h, H358 xenograft, time course, 8 hr, read-out: % Inhibition pMEK",81.8%
same,inhibition at 10 mg/kg,"[1]; Mus musculus, NCI-H358, 12 h, H358 xenograft, time course, 10 mg/kg single dose, 12 hr, read-out: % Inhibition pMEK",77.9%
same,inhibition at 30 mg/kg,"[1]; Mus musculus, NCI-H358, 12 h, H358 xenograft, time course, 12 hr, read-out: % Inhibition pMEK",65.8%
same,inhibition at 10 mg/kg,"[1]; Mus musculus, NCI-H358, 24 h, H358 xenograft, time course, 10 mg/kg single dose, 24 hr, read-out: % Inhibition pMEK",30%
same,inhibition at 30 mg/kg,"[1]; Mus musculus, NCI-H358, 24 h, H358 xenograft, time course, 24 hr, read-out: % Inhibition pMEK",35%
same,inhibition at 10 mg/kg,"[1]; Mus musculus, NCI-H358, H358 xenograft, 10 mg/kg single dose, from 2-12 hr, read-out: pMEK inhibition",49 to 78%
same,inhibition at 30 mg/kg,"[1]; Mus musculus, NCI-H358, H358 xenograft, from 2-24 hr, read-out: pMEK inhibition",35 to 89%
same,EC50,"[1]; Mus musculus, NCI-H358, H358 xenograft, plasma exposure by mass spectrum, read-out: plasma concentration to achieve 50% target inhibition (TEC50), pMEK",515 nM
